Test results reported in patent publication US7935335B2, “Strains belonging to the genus Paenibacillus and method of controlling plant disease by using these strains or culture thereof” (Kaken Pharmaceutical Co., Ltd., priority 2004, dated 2011).

Legend:
parsley cultured cells [1] = experiment: Activity of inducing disease resistance: elicitor responsiveness of parsley cultured cells, phytoalexin detection by fluorescence; assay type: cell-based; conditions: 2.5 μM
Procedure: The activity of inducing disease resistance in plant of compound 1 and compound 2 according to the present invention was also evaluated according to the method of Siegrist, J. et al. The results are shown in Table 9.
(§1) The activity of inducing disease resistance in plant of each of compound 1 and compound 2 was evaluated in the same manner as in Evaluation Example 1 by adopting the method practiced in Evaluation Example 1, i.e., the method in which the elicitor responsiveness of parsley cultured cells was measured by the detection of phytoalexin using fluorescence.
as §1, with “inducing” for “inducing disease”, “resistance to” for “resistance in”, “plant diseases” for “plant”, “compound 3” for “compound 1”, “compound 4” for “compound 2”

[2] = system: cucumber anthracnose fungus (Colletotrichum orbiculare); experiment: Test Example 1: control effect of a culture of each strain on cucumber anthracnose; assay type: in vivo; conditions: cucumber first true leaf; 20 ppm
Procedure: Each of plastic pots was filled with horticultural compost and sown with cucumber (cultivar: Suyo), followed by growing in a greenhouse for 20 days. The cotyledon of the cucumber young seedling having a developed first true leaf was coated with 0.1 mL of whole culture of each of strains BS-0048, BS-0074, BS-0105 and BS-0277 prepared by the method described in Production Example 1. After the pots were allowed to stand in a glass house at 25° C. for 3 days, the plants were inoculated with a suspension of cucumber anthracnose fungus conidia in distilled water (Colletotrichum orbiculare, 1×10^6 spores/ml) by spraying. The pots were allowed to stand in a dark moist chamber at 25° C. for 24 hours and then in a glass house at 25° C. for 7 days to cause the disease. Lesions in the first true leaf of each seedling were counted and the protective value was calculated from the number of the lesions by the following equation to make a comparison with respect to control effect. Protective value={1−(number of lesions on treated plot/number of lesions on untreated plot)}×100

[3] = system: cucumber bacterial blight bacterium (Pseudomonas syringae pv. lachrymans); experiment: Evaluation Example 3: control effect on cucumber bacterial blight, plant foot drench; assay type: in vivo; conditions: 20 ppm
Procedure: Each of plastic pots was filled with horticultural compost and sown with cucumber (cultivar: Suyo), followed by growing in a greenhouse for 20 days. The cucumber young seedling having a developed second true leaf was subjected to plant foot drench treatment with the formulation obtained in the above-mentioned preparation example, in a proportion of 5 mL per seedling. After the pots were allowed to stand in a glass house at 25° C. for 3 days, the plants were inoculated with a suspension (1×10^8 CFU/mL) of cucumber bacterial blight bacterium (Pseudomonas syringae pv. lachrymans) in distilled water by spraying. The pots were allowed to stand in a dark moist chamber at 25° C. for 24 hours and then in a glass house at 25° C. for 7 days to cause the disease. Lesions in each leaf were counted and the protective value was calculated from the number of the lesions by the following equation to make a comparison with respect to control effect. Protective value={1−(number of lesions on treated plot/number of lesions on untreated plot)}×100

[4] = system: cucumber bacterial blight bacterium (Pseudomonas syringae pv. lachrymans); experiment: Test Example 3: control effect of purified spores on cucumber bacterial blight; assay type: in vivo; conditions: cucumber second true leaf; 20 ppm
[5] = system: Pseudomonas syringae pv. lachrymans; experiment: Test Example 5: control effect of a culture broth on melon bacterial blight; assay type: in vivo; conditions: foliar spray of 2 mL of 2 ppm solution
Procedure: Each of nursery trays was filled with Aisai No. 1 (mfd. by Katakura Chikkarin Co., Ltd.) and a melon (cultivar: Arles) seedling was raised in each tray. In this case, a seed treatment plot was prepared by immersing melon seeds in a Petri dish containing 10 mL (10^8 spores/mL) of the culture broth of strain BS-0105 prepared in Production Example 2, followed by bacterization at 30° C. for 2 hours. After the development of a cotyledon, the seedling was potted in a 12-cm polyethylene pot filled with Aisai No. 1. When three true leaves were completely developed, the following plots were prepared: plots on which drench or foliar spray, respectively, treatment with 1 mL ([…]) of the culture broth of strain BS-0105 prepared in Production Example 2 was carried out, and a plot on which foliar spray of 2 mL of a 2 ppm solution of Acibenzolar-S-methyl was carried out. As to the inoculation of the pathogenic bacterium (Pseudomonas syringae pv. lachrymans), 5 days after the treatment, a liquid containing the bacterial blight bacterium previously cultured on a potato semisynthetic medium (a decoction consisting of 300 g of potato and 1 L of distilled water, calcium nitrate tetrahydrate 0.5 g, disodium hydrogenphosphate dodecahydrate 2 g, peptone 5 g, sucrose 20 g, powdered agar 15 g) was inoculated on the whole of each leaf by spraying so that the reverse side of the leaf might be mainly treated. Inspection for infection was carried out by counting lesions in each of leaves from second to fourth leaves 8 days after the inoculation with the pathogenic bacterium. The protective value was calculated from the number of the lesions by the following equation to make a comparison with respect to control effect. Protective value={1−(number of lesions on treated plot/number of lesions on untreated plot)}×100

parsley cultured cells [6] = experiment: Activity of inducing disease resistance: elicitor responsiveness of parsley cultured cells, phytoalexin detection by fluorescence; assay type: cell-based; conditions: Evaluation Example 1; elicitor treatment Yes; 2.5 μM
[7] = system: strawberry anthracnose fungus (Glomerella cigulata); experiment: Test Example 4: control effect of purified spores on strawberry anthracnose; assay type: in vivo; conditions: 20 ppm
Procedure: Strawberry seedlings (cultivar: Akihime) cultivated in plastic pots and having about 10 developed leaflets were subjected to foliage application treatment with a spore preparation sample of strain BS-0105 obtained by formulating the bacterium of the present invention produced by the method described in Production Example 5, by the method described in Formulation Example 2, so that the proportion of cells might be 2×10^7 CFU/mL. After the pots were allowed to stand in a dark moist chamber at 25° C. for 24 hours and then in a glass house at 25° C. for 3 days (or 1 day in the case of Amister 20 flowable), the plants were inoculated with a suspension of strawberry anthracnose fungus conidia in distilled water (Glomerella cigulata, 2×10^6 spores/ml) by spraying. The pots were allowed to stand in a dark moist chamber at 25° C. for 24 hours and then in a glass house at 25° C. for 14 days to cause the disease. The disease severity was calculated by the following equation and the protective value was calculated from the disease severity values by the following equation to make a comparison with respect to control effect. […]

With `CSC(=O)c1cccc2nnsc12` [Acibenzolar-S-methyl, S-methyl 1,2,3-benzothiazole-7-carboxylate] the Relative fluorescence (parsley cultured cells [1]; Evaluation Example 6, elicitor treatment No) was 86.9, the Relative fluorescence (parsley cultured cells [1]; Evaluation Example 6, elicitor treatment Yes) was 664.8 and the Relative fluorescence (parsley cultured cells [1]; Evaluation Example 7, elicitor No) was 0.8. For the same molecule, the Relative fluorescence (parsley cultured cells [1]; Evaluation Example 7, elicitor Yes) was 377.5, the Number of lesions [2] was 5 and the Protective value [2] was 96.7. For the same molecule, the “Number of lesions per leaf” value [3] was 137.8 b, the Protective value [3] was 78.8 and the “Number of lesions per leaf” value [4] was 0 b. The Protective value [4] was 100, the “Protective value Average” value [5] was 78.5 and the “Protective value Fourth leaf” value [5] was 66.7. For the same molecule, the “Protective value Second leaf” value [5] was 100.0, the “Protective value Third leaf” value [5] was 68.8 and the Relative fluorescence (parsley cultured cells [6]) was 754.3. For the same molecule, the Disease severity [7] was 10.9 b and the Protective value [7] was 85.1.
